This is an account of results in ChEMBL document CHEMBL1201862, “PubChem BioAssay data set” (2004).

Each structure is given as a SMILES string.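 Briefly, cells in 96-well plates were exposed to five compound concentrations for 48 h, and endpoints were estimated by linear interpolation. GI50: concentration for 50% inhibition of growth.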 Active and inactive are the calls of the source. Rule as the data show it: active = GI50 up to about 1.1 µM and inactive = higher. Some results are limits rather than exact numbers.

What all share (assay): NCI tumour cell line growth inhibition, 48 h
The subject of test [1] is SN12C.
The subject of test [2] is SK-MEL-28.
The test system of test [3] is TK-10.
The subject of test [4] is A498.
Test [5] deals with HT-29.
The subject of test [6] is OVCAR-8.
For test [7], the system named is HCT-15.
The subject of test [8] is Malme-3M.
Test [9] deals with SNB-19.
Test [10] deals with SW-620.
Test [11] has as its system SF-295.
The subject of test [12] is RPMI-8226.
Test [13] concerns UACC-62.
For test [14], the system named is SK-MEL-2.
Test [15] deals with LOX IMVI.
In test [16] the test system is MOLT-4.
For test [17], the system named is MDA-MB-231.
The subject of test [18] is OVCAR-3.
The test system of test [19] is KM12.
The test system of test [20] is SNB-75.

As for `Cc1ccc([S+]([O-])c2sccc2C=O)cc1` (stereo unspecified), the GI50 is 22.9 µM (inactive) in [1]; 29.2 µM (inactive) in test [2]; > 100 µM (inactive) in test [3]; > 100 µM (inactive) in test [4]; 19.8 µM (inactive) in [5]; 23.1 µM (inactive) in test [6]. The GI50 in test [7] is 27.7 µM; in test [8], 23.4 µM (inactive); in test [9], > 100 µM (inactive); in test [10], 24.2 µM (inactive); in [11] it was 23.7 µM (inactive); in [12] it was 31 µM (inactive). Further, the GI50 is 19.3 µM (inactive) in test [13]; 43.6 µM (inactive) in [14]; 14.4 µM (inactive) in test [15]; 21.3 µM (inactive) in test [16]; 26.4 µM (inactive) in test [17]; > 10 µM (inactive) in [18]. The GI50 in [19] was 27.7 µM (inactive); in test [20] it was 33.9 µM (inactive).
With `CC(C)C1C(=O)N(c2c(F)c(F)c(F)c(F)c2F)C(=S)N1CC[S+]([O-])c1ccccc1` (stereo unspecified), the GI50 is 15.8 µM (inactive) in [1]; 16.9 µM (inactive) in test [2]; 26.9 µM (inactive) in test [3]; 16.6 µM (inactive) in [4]; 14 µM (inactive) in test [5]; 17.1 µM (inactive) in test [6]. For the same compound, the GI50 in [7] was 16.7 µM; in test [8] it was 15.7 µM (inactive); in test [9], 18.7 µM (inactive); in [10], 18.3 µM (inactive); in [11], 18 µM (inactive); in test [12], 18.8 µM (inactive). In addition, the GI50 in test [13] was 19.7 µM (inactive); in test [14], 17.5 µM (inactive); in [15] it was 14.4 µM (inactive); in [16] it was 21.2 µM (inactive); in test [17] it was 16 µM (inactive); in [18], 16.6 µM (inactive). Further, the GI50 is 16.8 µM (inactive) in [19] and 26.4 µM (inactive) in test [20].
In the case of `C[n+]1cn(-c2ccc([N+](=O)[O-])cn2)c2ccccc21`, the GI50 in test [2] is > 100 µM (inactive); in test [3] it was > 100 µM (inactive); in test [4] it was > 100 µM (inactive); in test [5], > 100 µM (inactive); in [6], > 100 µM (inactive); in test [7] it was greater than 100 µM. In addition, the GI50 in [8], in [9], in [10], in test [11], in test [12] and in test [13] was > 100 µM (inactive) throughout. Besides, the GI50 in test [14], in test [15], in [16], in test [17], in [18] and in test [19] was > 100 µM (inactive) each time. Also, the GI50 in [20] is > 100 µM (inactive).
In the case of `Nc1nc(Cl)c(N)c(NC23CC4CC(CC(C4)C2)C3)n1`, the GI50 is 1.82 µM (inactive) in test [1]; 1.84 µM (inactive) in [2]; 2.38 µM (inactive) in test [3]; 2.88 µM (inactive) in test [4]; 1.79 µM (inactive) in test [5]; 2.55 µM (inactive) in [6]. Also, the GI50 in test [7] is 1.73 µM; in test [8], 3.16 µM (inactive); in test [9], 1.63 µM (inactive); in [10], 1.51 µM (inactive); in [11], 2.78 µM (inactive); in [12], 2.25 µM (inactive). The GI50 is 1.63 µM (inactive) in test [13]; 0.147 µM (active) in test [14]; 3.87 µM (inactive) in test [15]; 2.39 µM (inactive) in test [16]; 1.79 µM (inactive) in test [17]; 1.64 µM (inactive) in test [18]. Moreover, the values for the GI50 in test [19] and in test [20] were 1.73 µM (inactive) and 2.1 µM (inactive), respectively.
As for `CCCCCOc1ccc(NC2=C(Cl)C(=O)c3c(O)ccc(O)c3C2=O)cc1`, the GI50 in test [1] is 2.96 µM (inactive); in test [2] it was 2.84 µM (inactive); in test [3], 5.97 µM (inactive); in test [4], > 10 µM (inactive); in test [5] it was 4.75 µM (inactive); in test [6], 2.99 µM (inactive). In addition, the GI50 is 2.02 µM in [7]; 2.49 µM (inactive) in test [8]; 7.87 µM (inactive) in [9]; 3.87 µM (inactive) in test [10]; > 10 µM (inactive) in [11]; 2.43 µM (inactive) in test [12]. For the same compound, the GI50 in [13] is 5.42 µM (inactive); in test [14], > 10 µM (inactive); in test [15] it was 1.79 µM (inactive); in test [16] it was 3.7 µM (inactive); in test [17] it was 3.35 µM (inactive); in [18], 4.2 µM (inactive). Also, the figures for the GI50 in [19] and in test [20] were 4.14 µM (inactive) and > 10 µM (inactive), respectively.
For `O=C(/C=C/c1ccc(Cl)cc1)Oc1ccc(C=C2CCC/C(=C\c3ccc(OC(=O)/C=C/c4ccc(Cl)cc4)cc3)C2=O)cc1`, the GI50 in test [1], in [2], in test [3], in test [4], in [5] and in test [6] was > 100 µM (inactive) each time. Besides, the GI50 in [7] is greater than 100 µM; in test [8] it was > 100 µM (inactive); in test [9] it was > 100 µM (inactive); in test [10] it was > 100 µM (inactive); in test [11] it was > 100 µM (inactive); in [12] it was > 45.9 µM (inactive). Further, the GI50 in test [13], in test [14], in test [15], in [16], in test [17] and in [18] was > 100 µM (inactive) throughout. The GI50 in [19] is > 100 µM (inactive); in test [20] it was > 79.1 µM (inactive).
Turning to `CC(C)=CCc1c2c(c(O)c3c(=O)c4c(oc13)-c1ccc(O)cc1OC4C=C(C)C)C=CC(C)(C)O2` (stereo unspecified), the GI50 in test [1] was 6.35 µM (inactive); in test [2] it was 14.6 µM (inactive); in test [3] it was 14.8 µM (inactive); in test [4] it was 19.5 µM (inactive); in test [5], 13 µM (inactive); in test [6], 13.3 µM (inactive). In addition, the GI50 in test [7] is 7.5 µM; in test [8] it was 19.3 µM (inactive); in test [9], 15.3 µM (inactive); in test [10] it was 8.32 µM (inactive); in test [11], 14.6 µM (inactive); in test [12] it was 3.54 µM (inactive). Further, the GI50 in test [13] was 13.7 µM (inactive); in test [14], 12.6 µM (inactive); in test [15], 8.61 µM (inactive); in test [17], 14.2 µM (inactive); in test [18], 12.3 µM (inactive); in test [19], 8.04 µM (inactive). The GI50 in test [20] was 11.9 µM (inactive).
As for `CC(Nc1cccc(Cl)c1)c1ccncc1` (stereo unspecified), the GI50 is > 100 µM (inactive) in test [1]; > 100 µM (inactive) in test [2]; > 100 µM (inactive) in [3]; 95.9 µM (inactive) in [4]; > 100 µM (inactive) in test [5]; 88.3 µM (inactive) in test [6]. The GI50 is greater than 100 µM in [7]; > 100 µM (inactive) in test [8]; > 100 µM (inactive) in test [9]; > 100 µM (inactive) in test [10]; > 100 µM (inactive) in test [11]; 75.2 µM (inactive) in test [12]. The GI50 in [14] was > 100 µM (inactive); in test [15] it was > 100 µM (inactive); in test [16] it was 31 µM (inactive); in test [17], > 100 µM (inactive); in test [18], 49.4 µM (inactive); in test [19], > 100 µM (inactive). Also, the GI50 in [20] was > 100 µM (inactive).
On to `N#CC(C#N)SCc1ccccc1`, for which the GI50 in test [1] is 8.3 µM (inactive); in [2], 36.2 µM (inactive); in test [3] it was 26.5 µM (inactive); in [4] it was > 71.4 µM (inactive); in [5] it was 27.4 µM (inactive); in [6], 15 µM (inactive). The GI50 in test [7] was 31.1 µM; in test [8], 47.8 µM (inactive); in [9], 21 µM (inactive); in test [10] it was 4.59 µM (inactive); in [11] it was 16.8 µM (inactive); in [12], 6.18 µM (inactive). The GI50 in [13] was 34.4 µM (inactive); in test [14], 7.36 µM (inactive); in [15] it was 5.11 µM (inactive); in test [16] it was 1.67 µM (inactive); in test [17], 2.66 µM (inactive); in test [18], 23.8 µM (inactive). Further, the GI50 is 19.7 µM (inactive) in [19] and 38 µM (inactive) in [20].
Consider `O=C(NCCN(CCNC(=O)c1cccc(=O)n1O)CCN(CCNC(=O)c1cccc(=O)n1O)CCNC(=O)c1cccc(=O)n1O)c1cccc(=O)n1O`, for which the GI50 in test [1] is > 100 µM (inactive); in [2] it was > 100 µM (inactive); in test [3], > 100 µM (inactive); in test [4] it was > 100 µM (inactive); in test [5], 89.9 µM (inactive); in test [6], > 100 µM (inactive). Moreover, the GI50 in test [7] was greater than 100 µM; in test [8] it was 60.8 µM (inactive); in test [9] it was > 100 µM (inactive); in [10], > 100 µM (inactive); in [11], > 100 µM (inactive); in [12] it was > 100 µM (inactive). Besides, the GI50 in [13], in [14], in [15], in [17], in test [18] and in [19] was > 100 µM (inactive) in each case. Besides, in test [20], the GI50 was > 100 µM (inactive).
